Measurements taken from ChEMBL document CHEMBL3271973, “Synthesis and biological activities of 5-trifluoromethyl-5'-azido-2',5'-dideoxyuridine and 5-trifluoromethyl-5'-amino-2',5'-dideoxyuridine” (J Med Chem, 1976).
Activity calls are given as the source filed them. The calls are words filed in the database; no cut-off is given here.

Assays:
[1] = Antiviral activity against HSV1 CL-101 infected in African green monkey Vero cells assessed as reduction of viral titer at 200 uM after 40 hrs; type: functional, Herpes simplex virus (type 1 / strain CL101)
Sarcoma-180 = experiment: Cytotoxicity against mouse Sarcoma 180 cells after 1 to 3 days by coulter counter analysis; type: functional, cell-based
Vero = experiment: Cytotoxicity against African green monkey Vero cells at 1 uM after 3 days by haemocytometer analysis; type: cell-based; details: chlorocebus sabaeus, 72 h
[2] = Antiviral activity against HSV1 CL-101 infected in African green monkey Vero cells assessed as reduction of viral titer at 50 uM after 40 hrs; type: functional, Herpes simplex virus (type 1 / strain CL101)
[3] = Therapeutic index, ratio of cytotoxicity against African green monkey Vero cells to antiviral activity against HSV1 CL-101; type: cell-based; details: read-out: TI

Compound	Activity [1]	Activity (Sarcoma-180)	Activity (Vero)	Activity [2]	selectivity ratio [3]
[N-]=[N+]=NC[C@H]1O[C@@H](n2cc(C(F)(F)F)c(=O)[nH]c2=O)C[C@@H]1O	1.7 ×10⁶ PFU	Active			
O=c1[nH]c(=O)n([C@H]2C[C@H](O)[C@@H](CO)O2)cc1C(F)(F)F [TRIFLURIDINE]		Active	Toxic	1.5 ×10⁵ PFU	
NC[C@H]1O[C@@H](n2cc(C(F)(F)F)c(=O)[nH]c2=O)C[C@@H]1O	1 ×10⁵ PFU	Active			10
